Reference: patent US10342839B2, “Essential oil compositions and applications utilizing essential oils” (Ralco Nutrition, Inc., priority 2015, dated 2019)

Assays:
[1] = 3-oil screening trial, 35 days, broilers with cocci stress; type: in vivo, Cobb 500 cockerels; conditions: 0.75 pounds per ton of feed
Description: 640 1-day-old Cobb 500 cockerels were wing banded, weighed and randomly assigned to pens on the day of delivery. Each pen was 3 feet wide by 2 feet long by 2 feet tall holding 10 birds each; density was 0.6 sq. ft. per bird. The pens were contained within two battery cages in a single barn, each with battery cage having 4 levels and 8 pens per level for a total of 32 pens per battery. The experimental period was 35 days divided into three (3) feeding stages, starter, grower and finisher. Bird weight, average daily gain (ADG), average daily feed intake (ADFI), feed to gain (FG) and Coccidiosis oocyte counts were determined at each period. This study was performed with a large number of treatments in order to screen a number of possible treatments for further future investigations. […]

[2] = ORAC against peroxyl radicals; conditions: trolox equivalents
Description: (§1) Table 4 illustrates the ORAC scores for oregano essential oil (Origanum vulgare), thyme essential oil (Thymus vulgaris), cinnamaldehyde, and ActiFibe (50 wt. % larch arabinogalactan, 50 wt. % water) against 5 of the most common detrimental ROS: peroxyl radicals (RO2), hydroxyl radicals (OH^−1), peroxynitrate (ONO2^−1; H2O2+NO2^−1), superoxide anion (O2^−1), and singlet oxygen (O2). Results are expressed as trolox equivalents (TE/100 g) for each composition: […]

[3] = ORAC against singlet oxygen; conditions: trolox equivalents
Description: as §1

[4] = ORAC against peroxynitrite; conditions: trolox equivalents
Description: as §1

[5] = ORAC against superoxide anion; conditions: trolox equivalents
Description: as §1

[6] = Total ORAC over the five ROS; conditions: sum over the five oxygen species
Description: as §1

[7] = ORAC against hydroxyl radicals; conditions: trolox equivalents
Description: as §1

O=CC=Cc1ccccc1 [Cinnamaldehyde, cinnamaldehyde]
Average bird weights at 35 days [1]: 2180.2 grams | Oxygen Radical Absorbance Capacity, Peroxyl radical [2]: 18,800 TE/100 g | Oxygen Radical Absorbance Capacity, Singlet oxygen [3]: 90,800 TE/100 g | Oxygen Radical Absorbance Capacity, Peroxynitrite [4]: 3,500 TE/100 g | Oxygen Radical Absorbance Capacity, Superoxide anion [5]: 978,900 TE/100 g | Total ORAC [6]: 1,141,300 TE/100 g | Oxygen Radical Absorbance Capacity, Hydroxyl radical [7]: 49,300 TE/100 g
